From patent US10611730B2, “Benzimidazolone and benzothiazolone compounds and their use as AMPA receptor modulators” (Janssen Pharmaceutica NV, priority 2015, dated 2020) come the findings set out here.

TARP γ8 dependent AMPA receptor (GluA1o-g8 fusion channel), sequence (P42261 other isoform, or with tags, fused parts or gaps): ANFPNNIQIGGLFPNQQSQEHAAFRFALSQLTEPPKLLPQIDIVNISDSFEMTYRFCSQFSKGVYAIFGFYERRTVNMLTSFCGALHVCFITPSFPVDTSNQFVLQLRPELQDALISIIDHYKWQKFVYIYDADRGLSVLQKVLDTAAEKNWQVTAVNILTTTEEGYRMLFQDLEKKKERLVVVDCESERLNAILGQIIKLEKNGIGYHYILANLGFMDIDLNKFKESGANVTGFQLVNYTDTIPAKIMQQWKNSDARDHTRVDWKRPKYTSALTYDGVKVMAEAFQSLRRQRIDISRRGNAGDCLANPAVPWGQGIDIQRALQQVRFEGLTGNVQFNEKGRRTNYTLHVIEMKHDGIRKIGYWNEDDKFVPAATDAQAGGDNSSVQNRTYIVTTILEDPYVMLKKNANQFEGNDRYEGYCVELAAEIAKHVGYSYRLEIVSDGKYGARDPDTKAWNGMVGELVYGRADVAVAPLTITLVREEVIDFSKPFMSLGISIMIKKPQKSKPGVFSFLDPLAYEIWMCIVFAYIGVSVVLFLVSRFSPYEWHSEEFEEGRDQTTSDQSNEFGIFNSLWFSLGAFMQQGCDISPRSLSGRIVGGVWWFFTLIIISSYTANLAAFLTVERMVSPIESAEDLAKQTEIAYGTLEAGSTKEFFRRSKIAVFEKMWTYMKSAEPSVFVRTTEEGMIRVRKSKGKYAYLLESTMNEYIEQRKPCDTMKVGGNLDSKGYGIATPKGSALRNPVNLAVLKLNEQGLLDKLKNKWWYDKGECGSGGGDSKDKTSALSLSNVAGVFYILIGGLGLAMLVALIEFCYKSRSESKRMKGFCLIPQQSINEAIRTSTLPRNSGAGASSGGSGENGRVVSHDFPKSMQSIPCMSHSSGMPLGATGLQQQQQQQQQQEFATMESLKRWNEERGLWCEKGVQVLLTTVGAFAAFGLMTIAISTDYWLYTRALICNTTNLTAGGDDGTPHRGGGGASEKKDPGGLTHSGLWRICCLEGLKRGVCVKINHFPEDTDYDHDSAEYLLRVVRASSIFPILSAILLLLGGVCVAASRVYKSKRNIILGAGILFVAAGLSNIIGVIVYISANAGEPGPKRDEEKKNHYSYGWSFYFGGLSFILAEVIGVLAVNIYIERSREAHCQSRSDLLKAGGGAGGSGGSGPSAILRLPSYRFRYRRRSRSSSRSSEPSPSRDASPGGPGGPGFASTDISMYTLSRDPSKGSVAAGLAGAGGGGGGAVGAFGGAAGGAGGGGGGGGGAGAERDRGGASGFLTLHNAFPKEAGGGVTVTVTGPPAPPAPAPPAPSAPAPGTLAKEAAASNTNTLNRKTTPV

This assay concerns the target TARP γ8 dependent AMPA receptor (GluA1o-g8 fusion channel) (Homo sapiens (Human), UniProt P42261+Q8WXS5). Kind of assay: Calcium flux assay (FLIPR), HEK293 cells expressing GRIA1o-CACNG8 fusion. The format is cell-based. The conditions noted are these: inhibition of calcium flux after 15 μM glutamate, read-out: GluR1-γ8 pIC50 (converted). An excerpt: This assay was used to test compounds for their ability to inhibit TARP γ8 dependent AMPA receptor activity.
An in vitro assay was used to determine the potency of test compounds as inhibitors of the glutamate response of the channel formed by GluA1o-g8. To ensure a 1:1 stoichiometry of GluA1o and g8 subunits in the expressed channel, a fusion of the cDNAs for GRIA1o and CACNG8 was used. […] A clonal cell line in HEK293 cells stably expressing this construct, with a geneticin selection marker, was generated for use in this assay. Cell expressing the GRIAlo-CACNG8 fusion construct were grown in a monolayer in 96- or 384-well microtiter plates. […] The cells were then loaded with a calcium-sensitive dye (Calcium-5 or Calcium-6, Molecular Devices) and the test compounds at a range of concentrations.
The fluorescence in each well was normalized to the fluorescence of negative and positive control wells. […] The responses to glutamate as functions of the test compound concentrations were fitted to a four-parameter logistic function. The fitted parameter corresponding to the midpoint was taken to be the potency of inhibition of the compound.
On to `Cc1c(-c2ccc3[nH]c(=O)[nH]c3c2)cccc1-c1noc(C2CC2)n1` [Example 73, 5-[3-(5-Cyclopropyl-1,2,4-oxadiazol-3-yl)-2-methyl-phenyl]-1,3-dihydrobenzimidazol-2-one], for which the IC50 was 31.6 nM. For `CC(C#N)c1cccc(Cl)c1-c1ccc2[nH]c(=O)[nH]c2c1` (racemic) [Example 126, (±)-2-[3-Chloro-2-(2-oxo-1,3-dihydrobenzimidazol-5-yl)phenyl]propanenitrile], the IC50 is 12.6 nM. For `CC(C)(C#N)c1cccc(Cl)c1-c1ccc2[nH]c(=O)[nH]c2c1` [Example 127, 2-[3-Chloro-2-(2-oxo-1,3-dihydrobenzimidazol-5-yl)phenyl]-2-methyl-propanenitrile], the IC50 was 25.1 nM. In the case of `O=c1[nH]c2ccc(-c3cccc(-n4ccnc4)c3Cl)cc2[nH]1` [Example 187, 5-(2-Chloro-3-imidazol-1-yl-phenyl)-1,3-dihydrobenzimidazol-2-one], the IC50 was 3160 nM.

`COC(=O)c1ccc(Cl)c(-c2ccc3[nH]c(=O)[nH]c3c2)c1` [Example 44, Methyl 4-chloro-3-(2-oxo-1,3-dihydrobenzimidazol-5-yl)benzoate]: the IC50 was 316 nM. `O=c1[nH]c2ccc(-c3c(Cl)cccc3Cl)cc2[nH]1` [Example 49, 5-(2,6-Dichlorophenyl)-1,3-dihydrobenzimidazol-2-one]: the IC50 was 63.1 nM.

For `Cc1c(-c2ccc3[nH]c(=O)[nH]c3c2)cccc1-c1nnc(C(F)(F)F)o1` [Example 198, 5-[2-Methyl-3-[5-(trifluoromethyl)-1,3,4-oxadiazol-2-yl]phenyl]-1,3-dihydrobenzimidazol-2-one], the IC50 is 20 nM.

Turning to `O=c1[nH]c2ccc(-c3cccc(OC4CC4)c3Cl)cc2[nH]1` [Example 109, 5-[2-Chloro-3-(cyclopropoxy)phenyl]-1,3-dihydrobenzimidazol-2-one], the IC50 is 39.8 nM. Next, `N#CCOc1cccc(Cl)c1-c1ccc2[nH]c(=O)[nH]c2c1` [Example 97, 2-[3-Chloro-2-(2-oxo-1,3-dihydrobenzimidazol-5-yl)phenoxy]acetonitrile]: 316 nM; `O=c1[nH]c2ccc(-c3c(Cl)cncc3Cl)cc2[nH]1` [Example 69, 5-(3,5-Dichloro-4-pyridyl)-1,3-dihydrobenzimidazol-2-one]: 501 nM.

Turning to `Cc1cccc(F)c1-c1ccc2[nH]c(=O)[nH]c2c1` [Example 54, 5-(2-Fluoro-6-methyl-phenyl)-1,3-dihydrobenzimidazol-2-one], the IC50 is 251 nM.

As to `O=c1[nH]c2ccc(-c3cccc(CN4CCOCC4)c3Cl)cc2[nH]1` [Example 141, 5-[2-Chloro-3-(morpholinomethyl)phenyl]-1,3-dihydrobenzimidazol-2-one], the IC50 is 1000 nM. Regarding `O=c1[nH]c2ccc(-c3cccc4cccnc34)cc2[nH]1` [Example 58, 5-(8-Quinolyl)-1,3-dihydrobenzimidazol-2-one], the IC50 was 3160 nM.

For `N#CC1(c2cccc(Cl)c2-c2ccc3[nH]c(=O)[nH]c3c2)CCC1` [Example 129, 1-[3-Chloro-2-(2-oxo-1,3-dihydrobenzimidazol-5-yl)phenyl]cyclobutanecarbonitrile], the IC50 was 794 nM.

As to `Cc1c(CN2CC[C@H](O)[C@H](F)C2)cccc1-c1ccc2[nH]c(=O)[nH]c2c1` (stereo in doubt) [Example 159, (3R,4S)-5-[3-[[3-Fluoro-4-hydroxy-1-piperidyl]methyl]-2-methyl-phenyl]-1,3-dihydrobenzimidazol-2-one], the IC50 was 6310 nM. Turning to `C[C@@H](Oc1cccc(Cl)c1-c1ccc2[nH]c(=O)[nH]c2c1)C(F)(F)F` (single isomer, unassigned) [Example 119, (R*)-5-[2-Chloro-6-(2,2,2-trifluoro-1-methyl-ethoxy)phenyl]-1,3-dihydrobenzimidazol-2-one], the IC50 was 50.1 nM.

Consider `O=c1[nH]c2ccc(-c3c(Cl)cncc3Cl)cc2s1` [Example 134, 6-(3,5-Dichloro-4-pyridyl)-3H-1,3-benzothiazol-2-one], for which the IC50 was 63.1 nM.
